ChEMBL document CHEMBL4265905, “Synthesis and biological evaluation of novel Jiyuan Oridonin A-1,2,3-triazole-azole derivatives as antiproliferative agents” (Eur J Med Chem, 2018)

Tests used:
Assay type in all cases: functional, cell-based
ECa-109 cell line = test: Antiproliferative activity against human ECA109 cells after 72 hrs by MTT assay; details: ECa-109, 72 h
MCF7 = test: Antiproliferative activity against human MCF7 cells after 72 hrs by MTT assay; details: MCF7, 72 h
SMMC-7721 = test: Antiproliferative activity against human SMMC7721 cells after 72 hrs by MTT assay; details: SMMC-7721, 72 h
A549 = test: Antiproliferative activity against human A549 cells after 72 hrs by MTT assay; details: A549, 72 h
PC-3 = test: Antiproliferative activity against human PC3 cells after 72 hrs by MTT assay; details: PC-3, 72 h
MGC-803 = test: Antiproliferative activity against human MGC803 cells after 72 hrs by MTT assay; details: MGC-803, 72 h

SMILES | IC50 (ECa-109 cell line) | IC50 (MCF7) | IC50 (SMMC-7721) | IC50 (A549) | IC50 (PC-3) | IC50 (MGC-803)
C=C1C(=O)[C@]23[C@H](O)[C@H]1C[C@H](O)[C@H]2[C@]12CCCC(C)(C)[C@H]1C[C@H]3O[C@@H]2OCCCn1cc(CSc2nc3ccccc3s2)nn1 | 1.4 µM | 4.2 µM | 1.8 µM | 5.8 µM | 1.6 µM | 2.1 µM
C=C1C(=O)[C@]23[C@H](O)[C@H]1C[C@H](O)[C@H]2[C@]12CCCC(C)(C)[C@H]1C[C@H]3O[C@@H]2OCCCn1cc(CN2C(=O)CSC2=O)nn1 | 35 µM | 9.5 µM | – | – | 5.8 µM | > 50 µM
C=C1C(=O)[C@]23[C@H](O)[C@H]1C[C@H](O)[C@H]2[C@]12CCCC(C)(C)[C@H]1C[C@H]3OC2OCCCN=[N+]=[N-] (single isomer, unassigned) | 10.1 µM | 7.6 µM | 12 µM | 13.6 µM | 10 µM | 9.7 µM
C=C1C(=O)[C@]23[C@H](O)[C@H]1C[C@H](O)[C@H]2[C@]12CCCC(C)(C)[C@H]1C[C@H]3O[C@@H]2OCCCn1cc(CN2C(=O)SC(=C(C)C)C2=O)nn1 | 4.9 µM | 4.3 µM | 5.7 µM | 9.2 µM | 6.2 µM | 2.5 µM
C=C1C(=O)[C@]23[C@H](O)[C@H]1CC[C@H]2[C@@]12CO[C@]3(O)[C@@H](O)[C@@H]1C(C)(C)CC[C@@H]2O [ORIDONIN] | 33.6 µM | 64.3 µM | 30.1 µM | 25.4 µM | 43.9 µM | 34.3 µM
C=C1C(=O)[C@]23[C@H](O)[C@H]1C[C@H](O)[C@H]2[C@]12CCCC(C)(C)[C@H]1C[C@H]3O[C@@H]2OCCCn1cc(CN2C(=O)S/C(=C\c3ccccc3)C2=O)nn1 | 4.9 µM | 6.6 µM | – | – | 13.2 µM | 20 µM
C=C1C(=O)[C@]23[C@H](O)[C@H]1C[C@H](O)[C@H]2[C@]12CCCC(C)(C)[C@H]1C[C@H]3O[C@@H]2OCCCn1cc(CN2C(=O)S/C(=C\c3ccccc3Cl)C2=O)nn1 | 2.6 µM | 7.9 µM | – | – | 18.4 µM | 25.9 µM
C=C1C(=O)[C@]23[C@H](O)[C@H]1C[C@H](O)[C@H]2[C@]12CCCC(C)(C)[C@H]1C[C@H]3O[C@@H]2OCCCn1cc(CSC2=NCCS2)nn1 | 0.8 µM | 2.6 µM | 3.5 µM | 4 µM | 1.4 µM | 1.7 µM
C=C1C(=O)[C@]23[C@H](O)[C@H]1C[C@H](O)[C@H]2[C@]12CCCC(C)(C)[C@H]1C[C@H]3O[C@@H]2OCCCn1cc(CN2C(=O)S/C(=C\c3cc(OC)c(OC)c(OC)c3)C2=O)nn1 | 11.8 µM | 4.1 µM | – | – | 13.9 µM | 10.1 µM
C=C1C(=O)[C@]23[C@H](O)[C@H]1C[C@H](O)[C@H]2[C@]12CCCC(C)(C)[C@H]1C[C@H]3O[C@H]2O | 25.2 µM | 21.1 µM | 14.6 µM | 16.4 µM | 24.3 µM | 27.1 µM
C=C1C(=O)[C@]23[C@H](O)[C@H]1C[C@H](O)[C@H]2[C@]12CCCC(C)(C)[C@H]1C[C@H]3O[C@@H]2OCCCn1cc(CSc2ncccn2)nn1 | 5 µM | 14.9 µM | – | – | 5.9 µM | 5.2 µM
C=C1C(=O)[C@]23[C@H](O)[C@H]1C[C@H](O)[C@H]2[C@]12CCCC(C)(C)[C@H]1C[C@H]3O[C@@H]2OCCCn1cc(CN2C(=O)S/C(=C\c3ccc(OC)cc3)C2=O)nn1 | 9.3 µM | 8.9 µM | – | – | 11.5 µM | 17.3 µM
C=C1C(=O)[C@]23[C@H](O)[C@H]1C[C@H](O)[C@H]2[C@]12CCCC(C)(C)[C@H]1C[C@H]3O[C@@H]2OCCCn1cc(CSc2nnc(C)s2)nn1 | 6.2 µM | 14.6 µM | – | – | 7.7 µM | 4.5 µM
C=C1C(=O)[C@]23[C@H](O)[C@H]1C[C@H](O)[C@H]2[C@]12CCCC(C)(C)[C@H]1C[C@H]3O[C@@H]2OCCCn1cc(CN2C(=O)S/C(=C\c3ccc(F)cc3)C2=O)nn1 | 4.7 µM | 15.7 µM | – | – | 13.4 µM | 29.7 µM
C=C1C(=O)[C@]23[C@H](O)[C@H]1C[C@H](O)[C@H]2[C@]12CCCC(C)(C)[C@H]1C[C@H]3O[C@@H]2OCCCn1cc(CN2C(=O)S/C(=C/CC)C2=O)nn1 | 2.5 µM | 4.1 µM | 3.4 µM | 7.8 µM | 8.9 µM | 2.1 µM
C=C1C(=O)[C@]23[C@H](O)[C@H]1C[C@H](O)[C@H]2[C@]12CCCC(C)(C)[C@H]1C[C@H]3O[C@@H]2OCCCn1cc(CSc2nnnn2C)nn1 | 8.6 µM | 13.6 µM | – | – | 11.6 µM | 8.9 µM
C=C1C(=O)[C@]23[C@H](O)[C@H]1C[C@H](O)[C@H]2[C@]12CCCC(C)(C)[C@H]1C[C@H]3O[C@@H]2OCCCn1cc(CN2C(=O)S/C(=C/CCCCC)C2=O)nn1 | 4.2 µM | 1.9 µM | 5.3 µM | 4.8 µM | 5.3 µM | 1.2 µM
C=C1C(=O)[C@]23[C@H](O)[C@H]1C[C@H](O)[C@H]2[C@]12CCCC(C)(C)[C@H]1C[C@H]3O[C@@H]2OCCCn1cc(CSc2nncs2)nn1 | 5.6 µM | 15.2 µM | – | – | 9.6 µM | 5.2 µM
C=C1C(=O)[C@]23[C@H](O)[C@H]1C[C@H](O)[C@H]2[C@]12CCCC(C)(C)[C@H]1C[C@H]3O[C@@H]2OCCCn1cc(CN2C(=O)S/C(=C\c3ccc(F)c(F)c3)C2=O)nn1 | 3.3 µM | 4.8 µM | – | – | 16.1 µM | 35 µM
C=C1C(=O)[C@]23[C@H](O)[C@H]1C[C@H](O)[C@H]2[C@]12CCCC(C)(C)[C@H]1C[C@H]3O[C@@H]2OCCCn1cc(CN2C(=O)S/C(=C\c3ccc([N+](=O)[O-])cc3)C2=O)nn1 | 5.4 µM | 4.9 µM | – | – | 13.2 µM | 27.8 µM
